According to PMC8234273, “A Sesquiterpene Synthase from the Endophytic Fungus Serendipita indica Catalyzes Formation of Viridiflorol” (Biomolecules, 2021):

Biological target: T1, SiTPS (Serendipita indica, UniProt G4TNA6)
T1 construct: gene PIIN_06735; full coding region from S. indica cDNA, C-terminal His-tag (pET28b+), E. coli C41, His SpinTrap purified and desalted
T1 sequence (G4TNA6 1-515): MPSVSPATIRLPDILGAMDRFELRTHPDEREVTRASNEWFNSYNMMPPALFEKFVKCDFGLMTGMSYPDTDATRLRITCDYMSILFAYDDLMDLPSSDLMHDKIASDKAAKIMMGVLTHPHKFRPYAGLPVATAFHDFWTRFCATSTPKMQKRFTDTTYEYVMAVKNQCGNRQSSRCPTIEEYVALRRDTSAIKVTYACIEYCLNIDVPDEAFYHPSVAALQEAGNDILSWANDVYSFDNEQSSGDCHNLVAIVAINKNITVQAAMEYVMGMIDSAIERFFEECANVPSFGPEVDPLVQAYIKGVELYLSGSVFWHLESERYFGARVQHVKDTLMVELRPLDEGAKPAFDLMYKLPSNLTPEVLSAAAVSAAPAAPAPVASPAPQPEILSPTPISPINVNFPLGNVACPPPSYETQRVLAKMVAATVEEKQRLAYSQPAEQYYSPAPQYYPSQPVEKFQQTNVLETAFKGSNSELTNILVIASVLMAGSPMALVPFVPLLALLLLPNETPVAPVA
Assay: in vitro terpene synthase assay, GC-MS of hexane extract
Assay type: biochemical
Settings: 10 mM MgCl2, 100 mM KCl, 5 mM DTT, 10% glycerol, 50 mM HEPES pH 7.2, 30 °C, 1 h

CC(C)=CCC/C(C)=C/CC/C(C)=C/COP(=O)(O)OP(=O)(O)O [E,E-FPP]
in vitro terpene synthase assay, GC-MS of hexane extract: Hexane extracts showed activity only when SiTPS was incubated with E,E-FPP
